Reference: patent US10988477B2 (Merck Patent GmbH, priority 2018, dated 2021)
pIC50, pKi: −log10 of the molar value.

Assays:
[1] = molecular target: intracellular GCN2 (phosphorylation of the GCN2 substrate eIF2α) (Homo sapiens, UniProt Q9P2K8); test: GCN2 cellular inhibition assay (AlphaScreen SureFire P-eIF2α Ser51, borrelidin-treated U2OS cells); type: cell-based; settings: compounds of Formula II; biomarker assay, phosphorylated eIF2α Ser51 in borrelidin-treated U2OS cells
How it was run: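 U2OS, overnight attach; cpd 4-fold serial dil. from 40 μM final; borrelidin 10 μM, 1 h 37 °C/5% CO2; lyse; AlphaScreen P-eIF2α Ser51 (acceptor 2 h, donor overnight, RT, dark); % inhib. vs borrelidin-only.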

GCN2 kinase = GCN2 kinase (Homo sapiens, UniProt Q9P2K8); test: GCN2 enzyme inhibition assay (Transcreener ADP2 fluorescence polarization); type: biochemical; settings: compounds of Formula II; 280 μM ATP, 4 nM GCN2 kinase
Sequence of GCN2 kinase (Q9P2K8 whole entry): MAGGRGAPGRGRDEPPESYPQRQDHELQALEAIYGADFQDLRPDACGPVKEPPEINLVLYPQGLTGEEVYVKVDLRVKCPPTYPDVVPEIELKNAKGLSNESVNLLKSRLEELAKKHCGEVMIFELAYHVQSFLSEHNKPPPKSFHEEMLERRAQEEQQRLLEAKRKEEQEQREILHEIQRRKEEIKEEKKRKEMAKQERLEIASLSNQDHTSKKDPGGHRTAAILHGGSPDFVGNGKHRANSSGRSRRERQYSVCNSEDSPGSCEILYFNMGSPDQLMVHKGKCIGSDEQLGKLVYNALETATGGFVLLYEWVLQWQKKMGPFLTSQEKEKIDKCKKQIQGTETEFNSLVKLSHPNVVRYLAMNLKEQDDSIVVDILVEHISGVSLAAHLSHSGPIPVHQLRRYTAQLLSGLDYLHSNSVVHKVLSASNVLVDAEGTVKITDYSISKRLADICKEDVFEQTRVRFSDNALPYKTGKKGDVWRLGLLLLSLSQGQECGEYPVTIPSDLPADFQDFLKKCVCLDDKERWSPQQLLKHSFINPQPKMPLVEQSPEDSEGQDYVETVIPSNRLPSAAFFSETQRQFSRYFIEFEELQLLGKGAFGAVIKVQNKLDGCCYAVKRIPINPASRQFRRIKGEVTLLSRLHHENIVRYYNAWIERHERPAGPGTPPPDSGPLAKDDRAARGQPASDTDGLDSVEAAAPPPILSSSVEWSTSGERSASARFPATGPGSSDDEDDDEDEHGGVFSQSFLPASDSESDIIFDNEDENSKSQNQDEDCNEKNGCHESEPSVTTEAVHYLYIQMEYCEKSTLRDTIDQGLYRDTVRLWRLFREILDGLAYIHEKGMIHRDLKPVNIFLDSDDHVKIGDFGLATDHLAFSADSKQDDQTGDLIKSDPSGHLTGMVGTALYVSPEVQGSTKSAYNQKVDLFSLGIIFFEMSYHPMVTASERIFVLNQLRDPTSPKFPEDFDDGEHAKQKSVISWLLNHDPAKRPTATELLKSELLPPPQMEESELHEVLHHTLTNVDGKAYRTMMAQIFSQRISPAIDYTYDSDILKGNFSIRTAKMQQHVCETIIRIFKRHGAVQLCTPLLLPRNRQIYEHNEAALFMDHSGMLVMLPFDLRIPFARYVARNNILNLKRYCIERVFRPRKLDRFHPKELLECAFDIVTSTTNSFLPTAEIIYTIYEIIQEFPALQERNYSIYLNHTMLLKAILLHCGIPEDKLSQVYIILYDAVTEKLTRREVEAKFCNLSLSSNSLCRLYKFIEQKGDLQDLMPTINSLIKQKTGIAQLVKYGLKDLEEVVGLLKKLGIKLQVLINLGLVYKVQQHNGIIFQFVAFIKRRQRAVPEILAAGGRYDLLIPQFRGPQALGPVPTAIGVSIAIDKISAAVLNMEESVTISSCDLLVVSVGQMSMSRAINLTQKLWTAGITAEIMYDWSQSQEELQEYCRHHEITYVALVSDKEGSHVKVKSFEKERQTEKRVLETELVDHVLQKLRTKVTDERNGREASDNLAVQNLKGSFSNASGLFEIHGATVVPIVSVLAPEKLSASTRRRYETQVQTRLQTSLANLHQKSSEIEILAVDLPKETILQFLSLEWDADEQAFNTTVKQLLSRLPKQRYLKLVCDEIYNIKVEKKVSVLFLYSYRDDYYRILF
How it was run: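 Kinase activity is followed as ADP formation, measured by fluorescence polarization, using 4 nM enzyme with 280 μM ATP and 200 μM (RS)7 peptide at pH 7.5 and 25 °C for 1 h. Values come from a non-linear tight-binding fit.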

Sequence of intracellular GCN2 (phosphorylation of the GCN2 substrate eIF2α) (Q9P2K8 whole entry): as above

Row | pIC50 [1] | pKi (GCN2 kinase) | Structure (SMILES)
1 | < 5.30 | 6.00 to 8.00 | FC(F)c1ccc2ncc(-c3ccnc(N4CCN5CCNCC5C4)c3)n2n1 (stereo not shown) [II-38, 2-(4-(6-(Difluoromethyl)imidazo[1,2-b]pyridazin-3-yl)pyridin-2-yl)octahydro-1H-pyrazino[1,2-a]pyrazine]
2 | 5.30 to 6.30 | 6.00 to 8.00 | CS(=O)(=O)NCC1CC(O)CN(c2cc(-c3cnc4ccc(C(F)F)nn34)ccn2)C1 (stereo not shown) [II-39, N-((1-(4-(6-(Difluoromethyl)imidazo[1,2-b]pyridazin-3-yl)pyridin-2-yl)-5-hydroxypiperidin-3-yl)methyl)methanesulfonamide]
3 | > 6.30 | > 8.00 | CS(=O)(=O)NCC1CC(O)CN(c2cc(-c3cnc4ccc(C(F)F)nn34)ccn2)C1 (stereo not shown) [II-40, N-((1-(4-(6-(Difluoromethyl)imidazo[1,2-b]pyridazin-3-yl)pyridin-2-yl)-5-hydroxypiperidin-3-yl)methyl)methanesulfonamide]
4 | 5.30 to 6.30 | 6.00 to 8.00 | Cn1cc(C(=O)N2CCCC(c3cc(-c4cnc5ccc(C(F)F)nn45)ncn3)C2)cn1 (stereo not shown) [II-41, (3-(6-(6-(Difluoromethyl)imidazo[1,2-b]pyridazin-3-yl)pyrimidin-4-yl)piperidin-1-yl)(1-methyl-1H-pyrazol-4-yl)methanone]
5 | < 5.30 | 6.00 to 8.00 | CS(=O)(=O)N1CCC2(CCN2c2cncc(-c3cnc4ccc(C(F)F)nn34)c2)CC1 [II-42, 6-(Difluoromethyl)-3-(5-(7-(methylsulfonyl)-1,7-diazaspiro[3.5]nonan-1-yl)pyridin-3-yl)imidazo[1,2-b]pyridazine]
6 | 5.30 to 6.30 | 6.00 to 8.00 | Cc1ncc(-c2cnc3ccc(C(F)F)nn23)cc1N1CCC12CCN(S(C)(=O)=O)CC2 [II-44, 6-(Difluoromethyl)-3-(6-methyl-5-(7-(methylsulfonyl)-1,7-diazaspiro[3.5]nonan-1-yl)pyridin-3-yl)imidazo[1,2-b]pyridazine]
7 | > 6.30 | > 8.00 | CC1CN(c2cc(-c3cnc4ccc(C(F)F)nn34)ncn2)CC(CNS(C)(=O)=O)C1(F)F (stereo not shown) [II-45, N-((1-(6-(6-(Difluoromethyl)imidazo[1,2-b]pyridazin-3-yl)pyrimidin-4-yl)-4,4-difluoro-5-methylpiperidin-3-yl)methyl)methanesulfonamide]
8 | < 5.30 | 6.00 to 8.00 | O=C1NCC2CN(c3cc(-c4cnc5ccc(C(F)F)nn45)ncn3)CCN12 (stereo not shown) [II-46, 7-(6-(6-(Difluoromethyl)imidazo[1,2-b]pyridazin-3-yl)pyrimidin-4-yl)hexahydroimidazo[1,5-a]pyrazin-3(2H)-one]
9 | 5.30 to 6.30 | 6.00 to 8.00 | O=C1OC[C@@H]2CN(c3cc(-c4cnc5ccc(C(F)F)nn45)ncn3)CCN12 [II-47, (S)-7-(6-(6-(Difluoromethyl)imidazo[1,2-b]pyridazin-3-yl)pyrimidin-4-yl)hexahydro-3H-oxazolo[3,4-a]pyrazin-3-one]
10 | < 5.30 | 6.00 to 8.00 | CS(=O)(=O)CCN1CCCC(c2cc(-c3cnc4ccc(C(F)F)nn34)ncn2)C1 (stereo not shown) [II-48, 6-(Difluoromethyl)-3-(6-(1-(2-(methylsulfonyl)ethyl)piperidin-3-yl)pyrimidin-4-yl)imidazo[1,2-b]pyridazine]
11 | 5.30 to 6.30 | 6.00 to 8.00 | Cc1ncc(-c2cnc3ccc(C(F)F)nn23)cc1N1CCCC(CNS(C)(=O)=O)C1 (stereo not shown) [II-49, N-((1-(5-(6-(Difluoromethyl)imidazo[1,2-b]pyridazin-3-yl)-2-methylpyridin-3-yl)piperidin-3-yl)methyl)methanesulfonamide]
12 | 5.30 to 6.30 | 6.00 to 8.00 | NC(=O)C1CN(c2cc(-c3cnc4ccc(C(F)F)nn34)ncn2)CCO1 (stereo not shown) [II-50, 4-(6-(6-(Difluoromethyl)imidazo[1,2-b]pyridazin-3-yl)pyrimidin-4-yl)morpholine-2-carboxamide]
13 | 5.30 to 6.30 | 6.00 to 8.00 | O=C1NCCC12CCCN(c1cc(-c3cnc4ccc(C(F)F)nn34)ncn1)C2 (stereo not shown) [II-51, 7-(6-(6-(Difluoromethyl)imidazo[1,2-b]pyridazin-3-yl)pyrimidin-4-yl)-2,7-diazaspiro[4.5]decan-1-one]
14 | < 5.30 | 6.00 to 8.00 | O=C1CC2(CCN(c3cc(-c4cnc5ccc(C(F)F)nn45)ncn3)CC2)N1 [II-52, 7-(6-(6-(Difluoromethyl)imidazo[1,2-b]pyridazin-3-yl)pyrimidin-4-yl)-1,7-diazaspiro[3.5]nonan-2-one]
15 | 5.30 to 6.30 | > 8.00 | Cc1cnc(-c2cnc3ccc(C(F)F)nn23)cc1N1CCCC(CNS(C)(=O)=O)C1 (stereo not shown) [II-53, N-((1-(2-(6-(Difluoromethyl)imidazo[1,2-b]pyridazin-3-yl)-5-methylpyridin-4-yl)piperidin-3-yl)methyl)methanesulfonamide]
16 | 5.30 to 6.30 | 6.00 to 8.00 | CS(=O)(=O)N1CCC2(CCN(c3cc(-c4cnc5ccc(C(F)F)nn45)ncn3)C2)CC1 [II-54, 2-(6-(6-(Difluoromethyl)imidazo[1,2-b]pyridazin-3-yl)pyrimidin-4-yl)-8-(methylsulfonyl)-2,8-diazaspiro[4.5]decane]
17 | > 6.30 | > 8.00 | CC(=O)N1CC2(C1)CN(c1cc(-c3cnc4ccc(C(F)F)nn34)cc(N3CCCC(CNS(C)(=O)=O)C3)n1)C2 (stereo not shown) [II-55, N-((1-(6-(6-Acetyl-2,6-diazaspiro[3.3]heptan-2-yl)-4-(6-(difluoromethyl)imidazo[1,2-b]pyridazin-3-yl)pyridin-2-yl)piperidin-3-yl)methyl)methanesulfonamide]
18 | 5.30 to 6.30 | 6.00 to 8.00 | CS(=O)(=O)N1CCC2(CCCN(c3cc(-c4cnc5ccc(C(F)F)nn45)ncn3)C2)C1 (stereo not shown) [II-56, 7-(6-(6-(Difluoromethyl)imidazo[1,2-b]pyridazin-3-yl)pyrimidin-4-yl)-2-(methylsulfonyl)-2,7-diazaspiro[4.5]decane]
19 | 5.30 to 6.30 | > 8.00 | CC1CN(c2cc(-c3cnc4ccc(C(F)F)nn34)ccn2)CC(CNS(C)(=O)=O)C1(F)F (stereo not shown) [II-57, N-((1-(4-(6-(Difluoromethyl)imidazo[1,2-b]pyridazin-3-yl)pyridin-2-yl)-4,4-difluoro-5-methylpiperidin-3-yl)methyl)methanesulfonamide]
20 | > 6.30 | > 8.00 | CC1CN(c2cc(-c3cnc4ccc(C(F)F)nn34)ccn2)CC(CNS(C)(=O)=O)C1(F)F (stereo not shown) [II-58, N-((1-(4-(6-(Difluoromethyl)imidazo[1,2-b]pyridazin-3-yl)pyridin-2-yl)-4,4-difluoro-5-methylpiperidin-3-yl)methyl)methanesulfonamide]
21 | > 6.30 | > 8.00 | CS(=O)(=O)NCC1CCCN(c2cc(-c3cnc4ccc(C(F)F)nn34)ncn2)C1 (stereo not shown) [II-59, N-((1-(6-(6-(Difluoromethyl)imidazo[1,2-b]pyridazin-3-yl)pyrimidin-4-yl)piperidin-3-yl)methyl)methanesulfonamide]
22 | > 6.30 | > 8.00 | CNc1cc(N2CCCC(CNS(C)(=O)=O)C2)cc(-c2cnc3ccc(C(F)F)nn23)n1 (stereo not shown) [II-60, N-((1-(2-(6-(Difluoromethyl)imidazo[1,2-b]pyridazin-3-yl)-6-(methylamino)pyridin-4-yl)piperidin-3-yl)methyl)methanesulfonamide]
23 | 5.30 to 6.30 | > 8.00 | CS(=O)(=O)NCC1CCCN(c2cc(-c3cnc4ccc(C(F)F)nn34)cc(Cl)n2)C1 (stereo not shown) [II-61, N-((1-(6-Chloro-4-(6-(difluoromethyl)imidazo[1,2-b]pyridazin-3-yl)pyridin-2-yl)piperidin-3-yl)methyl)methanesulfonamide]
